# “And” between values parts separate entries of the source, which are not always exact repeats. Equal entries are not always repeated.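 All cell lines were grown in 96-well plates and treated with compound for 48 hours. GI50 is the concentration that inhibits growth by half. The concentration for full growth arrest is given as TGI.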
# Tests used:
# Assay in all cases: NCI tumour cell line growth inhibition, 48 h
# [1] = tested on: A549 NSCLC
# [2] = tested on: IGROV1 ovarian
# [3] = tested on: SK-MEL-2 melanoma
# [4] = tested on: DU-145 prostate
# [5] = tested on: SK-OV-3 ovarian
# [6] = tested on: TK-10 renal
# [7] = tested on: HCT-116 colon
# [8] = tested on: RXF 393 renal
# [9] = tested on: OVCAR-8 ovarian
# [10] = tested on: NCI-H23 lung
# [11] = tested on: OVCAR-5 ovarian
# [12] = tested on: CCRF-CEM leukemia
# [13] = tested on: K-562 leukemia
# [14] = tested on: OVCAR-4 ovarian
# [15] = tested on: OVCAR-3 ovarian
# [16] = tested on: BT-549 breast
# [17] = tested on: HOP-92 NSCLC
# [18] = tested on: HOP-62 NSCLC
# [19] = tested on: PC-3 prostate
# [20] = tested on: HCT-15 colon
# [21] = tested on: MDA-N
# [22] = tested on: SF-268 CNS
# [23] = tested on: MDA-MB-435
# [24] = tested on: M14 melanoma
# [25] = tested on: COLO 205 colon
# [26] = tested on: SK-MEL-28 melanoma
# [27] = tested on: CAKI-1 renal
# [28] = tested on: RPMI-8226 leukemia
# [29] = tested on: NCI-H460 lung
# [30] = tested on: MOLT-4 leukemia
# [31] = tested on: UACC-257 melanoma
# [32] = tested on: HL-60(TB) leukemia
# [33] = tested on: MDA-MB-231 breast
# [34] = tested on: NCI-H226 lung
# [35] = tested on: NCI/ADR-RES ovarian
# [36] = tested on: SR leukemia
# [37] = tested on: SF-539 CNS
# [38] = tested on: ACHN renal
# [39] = tested on: SN12C renal
# [40] = tested on: KM12 colon
# [41] = tested on: HCC-2998 colon
# [42] = tested on: SW-620 colon
# [43] = tested on: UACC-62 melanoma
# [44] = tested on: MCF7 breast
# [45] = tested on: 786-0 renal
# [46] = tested on: SNB-19 CNS
# [47] = tested on: HT29 colon
# [48] = tested on: SNB-75 CNS
# [49] = tested on: LOX IMVI melanoma
# [50] = tested on: HS 578T breast
# [51] = tested on: UO-31 renal
# [52] = tested on: MALME-3M melanoma
# [53] = tested on: SF-295 CNS
# [54] = tested on: T-47D breast
# [55] = tested on: EKVX NSCLC
# [56] = tested on: U251 CNS
# [57] = tested on: SK-MEL-5 melanoma
# [58] = tested on: A498 renal
# [59] = tested on: NCI-H522 lung
smiles,measurement,setting,value
O=C(NNC(=O)c1ccccc1S)c1ccccc1S,GI50,[1],28.7 µM
same,TGI,[1],25 µM and > 100 µM
same,GI50,[2],16.9 µM
same,TGI,[2],22.5 µM and > 100 µM
same,TGI,[3],> 100 µM
same,TGI,[4],25 µM and > 100 µM
same,GI50,[5],64.8 µM
same,TGI,[5],> 100 µM
same,GI50,[6],> 100 µM
same,TGI,[6],> 100 µM
same,GI50,[7],8.17 µM
same,TGI,[7],25 µM and 82.1 µM
same,GI50,[8],8.74 µM
same,TGI,[8],25 µM and > 100 µM
same,TGI,[9],25 µM and > 100 µM
same,GI50,[10],20.8 µM
same,TGI,[10],25 µM and > 100 µM
same,GI50,[11],68.2 µM
same,TGI,[11],25 µM and > 100 µM
same,GI50,[12],1.85 µM
same,TGI,[12],25 µM and 12.2 µM
same,GI50,[13],5.4 µM
same,TGI,[13],25 µM and > 100 µM
same,GI50,[14],28 µM
same,TGI,[14],25 µM and > 100 µM
same,GI50,[15],16.1 µM
same,TGI,[15],25 µM and 65.4 µM
same,GI50,[16],16.7 µM
same,TGI,[16],25 µM and > 100 µM
same,GI50,[17],> 100 µM
same,TGI,[17],> 100 µM
same,GI50,[18],21 µM
same,TGI,[18],25 µM and 68.3 µM
same,TGI,[19],> 100 µM
same,GI50,[20],7.97 µM
same,TGI,[20],25 µM and > 100 µM
same,GI50,[21],22.3 µM
same,TGI,[21],25 µM and > 100 µM
same,GI50,[22],16.6 µM
same,TGI,[22],25 µM and > 100 µM
same,GI50,[23],33.2 µM
same,TGI,[23],25 µM and > 100 µM
same,GI50,[24],23.3 µM
same,TGI,[24],25 µM and > 100 µM
same,GI50,[25],28.2 µM
same,TGI,[25],25 µM and > 100 µM
same,GI50,[26],35.3 µM
same,TGI,[26],> 100 µM
same,GI50,[27],5.51 µM
same,TGI,[27],25 µM and > 100 µM
same,GI50,[28],9.24 µM
same,TGI,[28],25 µM and > 100 µM
same,GI50,[29],0.123 µM
same,TGI,[29],25 µM and > 100 µM
same,GI50,[30],3.58 µM
same,TGI,[30],25 µM and > 100 µM
same,GI50,[31],2.57 µM
same,TGI,[31],25 µM and > 100 µM
same,GI50,[32],3.12 µM
same,TGI,[32],24.6 µM and 17.6 µM
same,TGI,[33],> 100 µM
same,GI50,[34],25.2 µM
same,TGI,[34],25 µM and > 100 µM
same,GI50,[35],25.9 µM
same,TGI,[35],25 µM and > 100 µM
same,GI50,[36],3.37 µM
same,TGI,[36],25 µM and 15.4 µM
same,GI50,[37],37.1 µM
same,TGI,[37],25 µM and > 100 µM
same,TGI,[38],25 µM and > 100 µM
same,GI50,[39],25.9 µM
same,TGI,[39],25 µM and > 100 µM
same,GI50,[40],37.3 µM
same,TGI,[40],25 µM and > 100 µM
same,TGI,[41],> 100 µM
same,GI50,[42],8.09 µM
same,TGI,[42],25 µM and > 100 µM
same,GI50,[43],27.5 µM
same,TGI,[43],25 µM and > 100 µM
same,TGI,[44],> 100 µM
same,GI50,[45],13.4 µM
same,TGI,[45],25 µM and > 100 µM
same,GI50,[46],59.9 µM
same,TGI,[46],25 µM and > 100 µM
same,GI50,[47],31.3 µM
same,TGI,[47],25 µM and > 100 µM
same,GI50,[48],27.9 µM
same,TGI,[48],25 µM and > 100 µM
same,TGI,[49],25 µM and > 100 µM
same,TGI,[50],> 100 µM
same,TGI,[51],> 100 µM
same,GI50,[52],54.3 µM
same,TGI,[52],25 µM and > 100 µM
same,GI50,[53],21.8 µM
same,TGI,[53],25 µM and > 100 µM
same,GI50,[54],6.88 µM
same,TGI,[54],25 µM and > 100 µM
same,GI50,[55],52.2 µM
same,TGI,[55],25 µM and > 100 µM
same,GI50,[56],31.8 µM
same,TGI,[56],25 µM and > 100 µM
same,GI50,[57],34.2 µM
same,TGI,[57],25 µM and > 100 µM
same,TGI,[58],> 100 µM
same,GI50,[59],5.34 µM
CC1=CC(C)C(C)N(CC2=NCCN2)c2ccccc21 (centres undefined),TGI,[1],> 100 µM
same,TGI,[2],> 100 µM
same,TGI,[3],> 92.1 µM
same,TGI,[4],> 100 µM
same,TGI,[5],> 100 µM
same,TGI,[6],> 100 µM
same,TGI,[7],> 100 µM
same,TGI,[8],> 89.9 µM
same,TGI,[9],> 100 µM
same,TGI,[10],> 100 µM
same,TGI,[11],> 100 µM
same,TGI,[12],> 100 µM
same,TGI,[13],> 100 µM
same,TGI,[14],> 100 µM
same,TGI,[15],> 100 µM
same,TGI,[16],> 100 µM
same,TGI,[17],45.6 µM
same,TGI,[18],> 100 µM
same,TGI,[19],> 100 µM
same,TGI,[20],> 100 µM
same,TGI,[21],> 100 µM
same,TGI,[22],> 100 µM
same,TGI,[23],> 100 µM
same,TGI,[24],32.7 µM
same,TGI,[25],32.3 µM
same,TGI,[26],38.5 µM
same,TGI,[27],> 100 µM
same,TGI,[28],> 100 µM
same,TGI,[29],> 100 µM
same,TGI,[30],> 100 µM
same,TGI,[31],37.1 µM
same,TGI,[32],> 89.3 µM
same,TGI,[33],> 100 µM
same,TGI,[34],> 100 µM
same,TGI,[35],> 100 µM
same,TGI,[36],> 82.4 µM
same,TGI,[37],> 100 µM
same,TGI,[38],> 100 µM
same,TGI,[39],> 100 µM
same,TGI,[40],> 100 µM
same,TGI,[41],33.9 µM
same,TGI,[42],> 100 µM
same,TGI,[43],> 100 µM
same,TGI,[44],> 100 µM
same,TGI,[45],> 100 µM
same,TGI,[46],> 100 µM
same,TGI,[47],45.8 µM
same,TGI,[48],> 85.5 µM
same,TGI,[49],> 100 µM
same,TGI,[50],> 100 µM
same,TGI,[51],> 100 µM
same,TGI,[52],44.6 µM
same,TGI,[53],> 100 µM
same,TGI,[54],> 100 µM
same,TGI,[55],> 100 µM
same,TGI,[56],> 100 µM
same,TGI,[57],36.4 µM
same,TGI,[58],> 100 µM
same,TGI,[59],> 100 µM
